Publication PMC8000448, “Inhibitory Effects of Schisandra Lignans on Cytochrome P450s and Uridine 5′-Diphospho-Glucuronosyl Transferases in Human Liver Microsomes” (Pharmaceutics, 2021)
Read-outs that look alike come from different tables or passages of the source.

What was measured:
CYP2C8 = target: T1, CYP2C8 (Homo sapiens, UniProt P10632); assay: CYP2C8 inhibition in HLMs (amodiaquine); type: in vitro ADME
T1 construct: pooled HLMs (0.25 mg/mL); tissue XenoTech H2630; host or cells: pooled human liver microsomes, mixed gender
T1 sequence (P10632 1-490): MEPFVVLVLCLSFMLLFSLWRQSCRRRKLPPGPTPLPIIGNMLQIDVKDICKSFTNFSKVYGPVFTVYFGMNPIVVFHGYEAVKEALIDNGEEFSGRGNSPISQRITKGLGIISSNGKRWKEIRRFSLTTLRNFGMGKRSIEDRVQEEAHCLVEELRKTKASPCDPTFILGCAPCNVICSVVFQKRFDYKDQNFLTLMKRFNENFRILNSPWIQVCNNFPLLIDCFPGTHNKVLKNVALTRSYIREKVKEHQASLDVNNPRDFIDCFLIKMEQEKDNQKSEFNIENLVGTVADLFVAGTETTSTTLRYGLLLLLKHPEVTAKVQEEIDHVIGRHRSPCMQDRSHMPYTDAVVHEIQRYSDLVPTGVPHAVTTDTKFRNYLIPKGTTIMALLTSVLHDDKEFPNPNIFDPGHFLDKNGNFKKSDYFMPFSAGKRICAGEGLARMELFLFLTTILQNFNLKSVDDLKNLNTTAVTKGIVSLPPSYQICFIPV
Experimental: (§1) Lignans were first dissolved in methanol. […] All microsomal incubations were performed in triplicate.

CYP2E1 = target: T2, CYP2E1 (Homo sapiens, UniProt P05181); assay: CYP2E1 inhibition in HLMs (chlorzoxazone); type: in vitro ADME
T2 construct: pooled HLMs (0.25 mg/mL); tissue XenoTech H2630; host or cells: pooled human liver microsomes, mixed gender
Experimental: as §1

UGT1A4 = target: T3, UGT1A4 (Homo sapiens, UniProt P22310); assay: UGT1A4 inhibition in HLMs (trifluoperazine); type: in vitro ADME; details: average in triplicate, read-out: IC50, UGT 1A4
T3 construct: pooled HLMs (0.25 mg/mL); tissue XenoTech H2630; host or cells: pooled human liver microsomes, mixed gender
T3 sequence (P22310 29-534): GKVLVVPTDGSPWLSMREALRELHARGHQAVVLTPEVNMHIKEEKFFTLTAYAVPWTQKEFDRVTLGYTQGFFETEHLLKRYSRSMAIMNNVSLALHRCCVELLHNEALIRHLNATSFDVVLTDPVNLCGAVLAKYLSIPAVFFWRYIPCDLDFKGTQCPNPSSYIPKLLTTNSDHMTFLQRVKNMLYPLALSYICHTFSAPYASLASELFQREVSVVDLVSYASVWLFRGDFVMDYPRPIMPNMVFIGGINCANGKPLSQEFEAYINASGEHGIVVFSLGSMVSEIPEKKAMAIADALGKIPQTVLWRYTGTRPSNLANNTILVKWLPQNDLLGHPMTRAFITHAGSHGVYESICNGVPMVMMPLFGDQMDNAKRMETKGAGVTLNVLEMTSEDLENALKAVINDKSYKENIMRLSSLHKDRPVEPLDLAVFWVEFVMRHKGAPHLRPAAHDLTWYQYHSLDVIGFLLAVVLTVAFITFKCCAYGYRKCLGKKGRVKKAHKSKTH
Experimental: (§2) The inhibitory potential of six lignans on six UGT activities was evaluated using the previously developed cocktail method with slight modifications. […] These substrates are known to be selective for each UGT isoforms.

UGT1A6 = target: T4, UGT1A6 (Homo sapiens, UniProt P19224); assay: UGT1A6 inhibition in HLMs (N-acetylserotonin); type: in vitro ADME; details: average in triplicate, read-out: IC50, UGT 1A6
T4 construct: pooled HLMs (0.25 mg/mL); tissue XenoTech H2630; host or cells: pooled human liver microsomes, mixed gender
T4 sequence (P19224 27-532): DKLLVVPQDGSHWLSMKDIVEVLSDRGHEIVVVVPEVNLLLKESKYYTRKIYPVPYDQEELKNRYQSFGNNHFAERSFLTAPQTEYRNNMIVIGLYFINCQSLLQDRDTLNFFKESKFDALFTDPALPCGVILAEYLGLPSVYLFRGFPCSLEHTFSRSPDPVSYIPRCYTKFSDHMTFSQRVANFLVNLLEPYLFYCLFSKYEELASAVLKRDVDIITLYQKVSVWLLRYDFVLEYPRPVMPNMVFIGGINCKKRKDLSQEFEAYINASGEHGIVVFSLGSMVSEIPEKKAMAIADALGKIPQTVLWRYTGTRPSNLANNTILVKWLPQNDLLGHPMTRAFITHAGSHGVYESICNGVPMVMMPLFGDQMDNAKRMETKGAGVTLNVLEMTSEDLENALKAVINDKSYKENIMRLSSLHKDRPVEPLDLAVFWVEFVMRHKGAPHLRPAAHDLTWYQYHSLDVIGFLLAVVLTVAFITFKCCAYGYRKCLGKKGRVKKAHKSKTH
Experimental: as §2

UGT2B7 = target: T5, UGT2B7 (Homo sapiens, UniProt P16662); assay: UGT2B7 inhibition in HLMs (naloxone); type: in vitro ADME; details: average in triplicate, read-out: IC50, UGT 2B6 (so in the source)
T5 construct: pooled HLMs (0.25 mg/mL); tissue XenoTech H2630; host or cells: pooled human liver microsomes, mixed gender
T5 sequence (P16662 24-529): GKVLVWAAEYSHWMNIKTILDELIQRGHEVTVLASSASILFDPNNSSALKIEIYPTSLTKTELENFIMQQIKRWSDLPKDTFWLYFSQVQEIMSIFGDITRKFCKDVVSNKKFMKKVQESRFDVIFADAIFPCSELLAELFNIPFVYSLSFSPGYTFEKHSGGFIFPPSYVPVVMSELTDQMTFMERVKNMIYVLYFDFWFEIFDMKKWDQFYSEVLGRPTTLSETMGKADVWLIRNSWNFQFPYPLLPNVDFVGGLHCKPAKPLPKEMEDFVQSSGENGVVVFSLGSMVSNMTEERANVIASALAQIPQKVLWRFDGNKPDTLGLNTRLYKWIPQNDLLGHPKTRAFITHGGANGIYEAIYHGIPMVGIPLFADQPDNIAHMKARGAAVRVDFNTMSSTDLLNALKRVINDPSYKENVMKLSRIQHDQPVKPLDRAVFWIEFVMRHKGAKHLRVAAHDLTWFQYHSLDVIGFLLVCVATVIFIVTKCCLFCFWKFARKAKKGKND
Experimental: as §2

CYP2C9 = CYP2C9 (Homo sapiens, UniProt P11712); assay: CYP2C9 inhibition in HLMs (diclofenac)
Experimental: (§3) Lignans were first dissolved in methanol. The final organic solvent concentration in the incubation media was ≤1.0% (v/v). The microsomal incubation was conducted using two cocktail sets containing non-interactive substrates: set A containing phenacetin, bupropion, amodiaquine, diclofenac, S-mephenytoin, and dextromethorphan as substrates for CYP1A2, CYP2B6, CYP2C8, CYP2C9, CYP2C19, and CYP2D6, respectively; and set B containing coumarin and chlorzoxazone as substrates for CYP2A6 and CYP2E1, and midazolam, nifedipine, and testosterone as substrates for CYP3A4 (Table 1). These substrates are known to be selective for each P450 isoforms. Incubation mixtures containing potassium phosphate buffer (0.1 M, pH 7.4), pooled HLMs (0.25 mg/mL), P450 probe substrate cocktails, and lignan (0~50 μM) were pre-incubated at 37 °C (5 min). Following pre-incubation, an NADPH generating system (1.3 mM NADP^+, 3.3 mM G6P, 1 unit/mL G6PDH, and 3.3 mM MgCl2) was added to initiate the reaction, and further incubated for 10 min. The reaction was quenched with 50 μL of cold acetonitrile containing internal standard (IS; 7 nM trimipramine). After centrifugation at 14,000 rpm (5 min at 4 °C), aliquots of supernatants were filtered through a 0.2 μm membrane filter and were measured by liquid chromatography-tandem mass spectrometry (LC-MS/MS). All microsomal incubations were performed in triplicate.

CYP2C19 = CYP2C19 (Homo sapiens, UniProt P33261); assay: CYP2C19 inhibition in HLMs (S-mephenytoin)
Experimental: as §3

CYP3A = CYP3A (Homo sapiens, UniProt P08684); assay: CYP3A inhibition in HLMs (midazolam, nifedipine, testosterone); details: pooled human liver microsomes; for IC50 at 10 min: HLMs;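 on all read-outs here: pooled HLMs at 0.25 mg/mL in phosphate buffer, inhibitor across 0–50 µM, 10 min reaction at 37 °C after preincubation, probe metabolite quantified by LC-MS/MS, triplicate incubations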
Experimental: as §3

[1] = 30 min pre-incubation with NADPH generating system, read-out: IC50 TDI, CYP2C8
[2] = reversible inhibition, read-out: IC50 RI, CYP2C8
[3] = 30 min pre-incubation with NADPH generating system, read-out: IC50 TDI, CYP2E1
[4] = reversible inhibition, read-out: IC50 RI, CYP2E1
[5] = IC50 TDI, 30 min pre-incubation with NADPH generating system
[6] = pH 7.4, IC50, CYP3A activity (across probe substrates), reversible inhibition, probe substrate not singled out
[7] = pH 7.4, probe midazolam (cocktail set B), IC50 RI, CYP3A (midazolam), midazolam, reversible inhibition
[8] = pH 7.4, probe midazolam (cocktail set B), IC50 TDI, CYP3A (midazolam), midazolam, 30 min pre-incubation with NADPH generating system
[9] = pH 7.4, probe nifedipine (cocktail set B), IC50 RI, CYP3A (nifedipine), nifedipine, reversible inhibition
[10] = pH 7.4, probe nifedipine (cocktail set B), IC50 TDI, CYP3A (nifedipine), nifedipine, 30 min pre-incubation with NADPH generating system
[11] = pH 7.4, probe testosterone (cocktail set B), IC50 RI, CYP3A (testosterone), testosterone, reversible inhibition
[12] = pH 7.4, probe testosterone (cocktail set B), IC50 TDI, CYP3A (testosterone), testosterone, 30 min pre-incubation with NADPH generating system

T2 sequence (P05181 whole entry): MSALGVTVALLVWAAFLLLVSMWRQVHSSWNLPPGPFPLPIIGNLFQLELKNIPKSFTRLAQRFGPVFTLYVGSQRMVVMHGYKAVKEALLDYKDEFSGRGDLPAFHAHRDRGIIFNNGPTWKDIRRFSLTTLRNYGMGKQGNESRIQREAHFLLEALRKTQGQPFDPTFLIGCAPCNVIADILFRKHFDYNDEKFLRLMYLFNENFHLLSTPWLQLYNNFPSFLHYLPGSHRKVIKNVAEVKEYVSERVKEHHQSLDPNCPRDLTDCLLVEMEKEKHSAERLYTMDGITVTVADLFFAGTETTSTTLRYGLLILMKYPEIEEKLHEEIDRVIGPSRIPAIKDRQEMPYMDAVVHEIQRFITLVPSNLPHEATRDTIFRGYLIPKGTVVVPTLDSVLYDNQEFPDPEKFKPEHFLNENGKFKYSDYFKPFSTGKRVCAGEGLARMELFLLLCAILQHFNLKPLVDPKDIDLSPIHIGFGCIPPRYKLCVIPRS
Chain of CYP2C9 (P11712 whole entry): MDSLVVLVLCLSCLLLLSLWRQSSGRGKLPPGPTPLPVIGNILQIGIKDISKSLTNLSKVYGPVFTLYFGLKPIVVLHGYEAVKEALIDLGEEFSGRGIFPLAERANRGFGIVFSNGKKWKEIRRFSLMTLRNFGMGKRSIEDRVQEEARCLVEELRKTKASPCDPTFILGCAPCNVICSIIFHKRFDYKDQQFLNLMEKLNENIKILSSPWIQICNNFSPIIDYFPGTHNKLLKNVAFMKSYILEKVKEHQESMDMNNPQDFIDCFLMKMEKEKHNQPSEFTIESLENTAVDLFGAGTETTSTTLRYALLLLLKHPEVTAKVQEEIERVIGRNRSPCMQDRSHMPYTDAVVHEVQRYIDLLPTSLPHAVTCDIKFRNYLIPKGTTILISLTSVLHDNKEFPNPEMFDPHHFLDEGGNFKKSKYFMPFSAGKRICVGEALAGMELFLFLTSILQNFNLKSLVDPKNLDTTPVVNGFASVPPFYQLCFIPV
Chain of CYP3A (P08684 2-503): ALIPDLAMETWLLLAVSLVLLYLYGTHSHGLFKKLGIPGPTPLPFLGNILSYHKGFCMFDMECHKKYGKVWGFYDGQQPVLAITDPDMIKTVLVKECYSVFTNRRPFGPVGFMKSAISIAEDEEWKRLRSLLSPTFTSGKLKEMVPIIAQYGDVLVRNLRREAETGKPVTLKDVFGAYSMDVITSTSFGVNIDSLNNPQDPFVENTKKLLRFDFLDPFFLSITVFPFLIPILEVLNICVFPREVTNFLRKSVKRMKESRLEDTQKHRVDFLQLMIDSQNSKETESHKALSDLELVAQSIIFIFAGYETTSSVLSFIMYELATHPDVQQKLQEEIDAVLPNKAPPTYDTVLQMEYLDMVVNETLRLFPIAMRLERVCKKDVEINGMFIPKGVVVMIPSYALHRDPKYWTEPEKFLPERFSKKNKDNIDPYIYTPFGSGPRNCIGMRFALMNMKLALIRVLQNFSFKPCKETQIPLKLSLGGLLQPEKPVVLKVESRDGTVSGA
Chain of CYP2C19 (P33261 whole entry): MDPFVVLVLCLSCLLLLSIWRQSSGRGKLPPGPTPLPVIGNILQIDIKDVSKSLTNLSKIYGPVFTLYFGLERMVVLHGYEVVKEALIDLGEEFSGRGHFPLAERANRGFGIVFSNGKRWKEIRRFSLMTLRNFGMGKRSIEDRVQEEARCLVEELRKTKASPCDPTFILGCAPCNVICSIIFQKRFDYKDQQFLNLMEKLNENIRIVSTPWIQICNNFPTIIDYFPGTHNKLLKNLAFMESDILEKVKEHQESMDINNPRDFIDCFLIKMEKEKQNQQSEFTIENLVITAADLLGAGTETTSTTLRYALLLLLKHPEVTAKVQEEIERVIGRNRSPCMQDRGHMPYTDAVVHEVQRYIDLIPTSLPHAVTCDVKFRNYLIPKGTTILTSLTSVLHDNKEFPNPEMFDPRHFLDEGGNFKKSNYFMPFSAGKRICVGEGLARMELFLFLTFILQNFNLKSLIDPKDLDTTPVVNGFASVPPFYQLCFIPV

SMILES	IC50 (CYP2C8; [1]) [µM]	IC50 (CYP2C8; [2]) [µM]	IC50 (CYP2E1; [3]) [µM]	IC50 (CYP2E1; [4]) [µM]	IC50 (UGT1A4) [µM]	IC50 (UGT1A6) [µM]	IC50 (UGT2B7) [µM]	IC50 (CYP2C9; IC50 RI, reversible inhibition) [µM]	IC50 (CYP2C9; [5]) [µM]	IC50 (CYP2C19; IC50 RI, reversible inhibition) [µM]	IC50 (CYP2C19; [5]) [µM]	IC50 at 10 min (CYP3A; [6]) [µM]	IC50 at 10 min (CYP3A; [7]) [µM]	IC50 at 10 min (CYP3A; [8]) [µM]	IC50 at 10 min (CYP3A; [9]) [µM]	IC50 at 10 min (CYP3A; [10]) [µM]	IC50 at 10 min (CYP3A; [11]) [µM]	IC50 at 10 min (CYP3A; [12]) [µM]	also measured
COc1cc2c(c(OC)c1OC)-c1c(cc(OC)c(OC)c1OC)C[C@](C)(O)[C@@H](C)C2 [Schisandrin, schisandrin]	> 50	22	36	4.2	> 50	> 50	> 50	43	> 50	5.3	46.1	≤ 16	10.5	35	16	43.3	5.8	20.6	
COc1cc2c(c(OC)c1OC)-c1c(cc3c(c1OC)OCO3)C[C@H](C)[C@H](C)C2 [Gomisin N, gomisin N]	9.9	31.7	23.6	> 50	> 50	> 50	> 50	36.2	10.9	10.4	3.5	1.3 to 4.5	4.5	1.7	1.4	0.61	1.3	0.55	IC50 shift at 10 min (CYP2C8; human, pooled human liver microsomes, pH 7.4, probe amodiaquine, RI/TDI fold shift): 3.2; IC50 shift at 10 min (CYP2E1; human, pooled human liver microsomes, pH 7.4, probe chlorzoxazone (cocktail set B), RI/TDI fold shift): > 2.1; IC50 shift at 10 min (CYP3A; pH 7.4, probe midazolam (cocktail set B)): 2.7; IC50 shift at 10 min (CYP3A; pH 7.4, probe nifedipine (cocktail set B)): 2.4; IC50 shift at 10 min (CYP3A; pH 7.4, probe testosterone (cocktail set B)): 2.4
COc1cc2c(c(OC)c1OC)-c1c(cc3c(c1OC)OCO3)C[C@H](C)[C@](C)(O)[C@H]2OC(=O)c1ccccc1 [Gomisin C, gomisin C]	5.8		24.4	> 50	> 50	> 50	> 50	> 50	> 50	16.3	20.4	0.19 to 0.3	0.3	0.1	0.26	0.09	0.19 to 0.28	0.09	
COc1c2c(cc3c1-c1c(cc4c(c1OC)OCO4)C[C@H](C)[C@H](C)C3)OCO2 [Wuweizisu C, wuweizisu C]	14.6	21	25.2	> 50	> 50	> 50	> 50	8.9	3.6	2.7	1.5		25.9	2.5	5.6		3.6		
